pEC50, pIC50: −log10 of the molar value. Where two headings read alike, the source gives them in different places.
Key:
SARS-CoV-2 = assay: Cytopathic effect (CPE) suppression effect confirmation test using HEK293T/ACE2-TMPRSS2 cells; type: cell-based; conditions: Severe acute respiratory syndrome coronavirus 2, HEK-293T
[1] = biological target: Recombinant SARS-CoV-2 3CL Protease (Severe acute respiratory syndrome coronavirus 2 (2019-nCoV) (SARS-CoV-2), UniProt P0DTD1); assay: biochemical; type: biochemical; conditions: 50% SARS-CoV-2 3CL protease inhibitory concentration; read-out: IC50
[2] = 50% SARS-CoV-2 infected cell death inhibitory concentration, HEK293T/ACE2-TMPRSS2 cells, read-out: EC50
[3] = 72 h, read-out: EC50 (50% SARS-CoV-2 infected cell death inhibitory concentration), class, HEK293T/ACE2-TMPRSS2 cells, CPE suppression, CellTiter-Glo 2.0 after 3 days culture
[4] = 72 h, HEK293T/ACE2-TMPRSS2 cells, CPE suppression, CellTiter-Glo 2.0 after 3 days culture, read-out: EC50 (50% SARS-CoV-2 infected cell death inhibitory concentration), class

| SMILES | pEC50 (SARS-CoV-2; [2]) | pIC50 [1] | pEC50 (SARS-CoV-2; [3]) | pEC50 (SARS-CoV-2; [4]) | pEC50 (SARS-CoV-2; 72 h, read-out: EC50 (50% SARS-CoV-2 infected cell death inhibitory concentration), HEK293T/ACE2-TMPRSS2 cells, CPE suppression, CellTiter-Glo 2.0 after 3 days culture) |
| --- | --- | --- | --- | --- | --- |
| Cc1cnnc(-n2c(=O)c(-c3ccc(F)c(Cl)c3)c(N3CC4(C3)CC(F)(F)C4)n(CC#N)c2=O)c1 [Compound I-228] | > 7.00 | > 8.00 | – | – | – |
| COCc1c(-c2ccc(F)c(Cl)c2)c(=O)n(-c2cncc(Cl)c2)c(=O)n1CC#N [Compound I-435] | > 7.00 | 7.00 to 8.00 | – | – | – |
| N#CCn1c(N2CC(O)(C(F)(F)F)C2)c(-c2ccc(F)c(C#N)c2)c(=O)n(-c2cncc(Cl)c2)c1=O [Compound I-373] | > 7.00 | > 8.00 | – | – | – |
| Cc1cncc(-n2c(=O)c(Cc3cc(F)c(F)c(F)c3)c(N3CC4CC(F)(F)C4C3)n(CC#N)c2=O)c1 (racemic) [Compound I-103] | – | > 8.00 | > 7.00 | – | – |
| N#CCn1c(N2CC3(CCCO3)C2)c(-c2ccc(F)c(Cl)c2)c(=O)n(-c2cncc(Cl)c2)c1=O [Compound I-021] | – | > 8.00 | > 7.00 | – | – |
| C#CCn1c(C)c(-c2ccc(F)c(Cl)c2)c(=O)n(-c2cncc(Cl)c2)c1=O [Compound I-438] | > 7.00 | > 8.00 | – | – | – |
| Cc1cncc(-n2c(=O)c(-c3ccc(F)c(Cl)c3)c(N3CCC(F)(F)CC3)n(CC#N)c2=O)n1 [Compound I-197] | – | > 8.00 | > 7.00 | – | – |
| Cc1cc(-n2c(=O)c(-c3ccc(F)c(Cl)c3)c(-c3nc4ccccc4s3)n(CC#N)c2=O)cc(=O)[nH]1 [Compound I-189] | – | > 8.00 | > 7.00 | – | – |
| N#CCn1c(N2CC(O)(c3nccs3)C2)c(-c2ccc(F)c(Cl)c2)c(=O)n(-c2cncc(Cl)c2)c1=O [Compound I-256] | > 7.00 | > 8.00 | – | – | – |
| N#CCn1c(N2CC(F)(C3CC3)C2)c(-c2ccc(F)c(Cl)c2)c(=O)n(-c2cncc(OCF)c2)c1=O [Compound I-347] | > 7.00 | > 8.00 | – | – | – |
| Cc1cncc(-n2c(=O)c(-c3ccc(F)c(Cl)c3)c(N(C)Cc3ccccc3)n(CC#N)c2=O)c1 [Compound I-025] | – | > 8.00 | > 7.00 | – | – |
| CN1CCN(c2c(-c3ccc(F)c(Cl)c3)c(=O)n(-c3cncc(Cl)c3)c(=O)n2CC#N)CC1=O [Compound I-068] | – | > 8.00 | > 7.00 | – | – |
| Cc1cncc(-n2c(=O)c(Cc3cc(F)c(F)c(F)c3)c(N3CC(F)C3)n(CC#N)c2=O)c1 [Compound I-090] | – | 7.00 to 8.00 | – | > 7.00 | – |
| N#CCn1c(N2CC3(CCOC3)C2)c(Cc2cc(F)c(F)c(F)c2)c(=O)n(-c2cncnc2)c1=O [Compound I-007] | – | < 7.00 | 6.00 to 7.00 | – | – |
| N#CCn1c(N2CC3(C2)CC(F)(F)C3)c(-c2ccc(F)c(Cl)c2)c(=O)n(-c2cc(C#N)cnn2)c1=O [Compound I-216] | > 7.00 | > 8.00 | – | – | – |
| N#CCn1c(N2CC(F)(C3CC3)C2)c(-c2ccc(F)c(Cl)c2)c(=O)n(-c2cncc(C#N)c2)c1=O [Compound I-338] | > 7.00 | > 8.00 | – | – | – |
| N#CCn1c(CCC2(O)CCC2)c(-c2ccc(F)c(F)c2)c(=O)n(-c2cncc(Cl)c2)c1=O [Compound I-436] | > 7.00 | > 8.00 | – | – | – |
| N#CCn1c(N2CC(OC(F)(F)F)C2)c(-c2ccc(F)c(Cl)c2)c(=O)n(-c2cncc(C#N)c2)c1=O [Compound I-311] | > 7.00 | > 8.00 | – | – | – |
| N#CCn1c(N2CCC3(CNC(=O)C3)C2)c(-c2ccc(F)c(Cl)c2)c(=O)n(-c2cnc3cc(Cl)ccn23)c1=O (racemic) [Compound I-051] | – | 7.00 to 8.00 | – | 5.30 to 6.00 | – |
| N#CCn1c(N2CC3(CCOC3)C2)c(-c2ccc(F)c(Cl)c2)c(=O)n(-c2cnc3cc(F)ccn23)c1=O [Compound I-147] | – | > 8.00 | > 7.00 | – | – |
| Cc1cncc(-n2c(=O)c(Cc3cc(F)c(F)c(F)c3)c(-c3cc4ccccc4s3)n(CC#N)c2=O)c1 [Compound I-019] | – | > 8.00 | > 7.00 | – | – |

| SMILES | pEC50 (SARS-CoV-2; [2]) | pIC50 [1] | pEC50 (SARS-CoV-2; [3]) | pEC50 (SARS-CoV-2; [4]) | pEC50 (SARS-CoV-2; 72 h, read-out: EC50 (50% SARS-CoV-2 infected cell death inhibitory concentration), HEK293T/ACE2-TMPRSS2 cells, CPE suppression, CellTiter-Glo 2.0 after 3 days culture) |
| --- | --- | --- | --- | --- | --- |
| N#CCc1c(N2Cc3ccccc3C2)n(Cc2cc(F)c(F)c(F)c2)c(=O)n(-c2cncc(Cl)c2)c1=O [Compound I-185] | – | 7.57 | – | – | 7.39 |
| COC1CN(c2c(-c3ccc(F)c(Cl)c3)c(=O)n(-c3cncc(C(F)F)n3)c(=O)n2CC#N)C1 [Compound I-396] | > 7.00 | > 8.00 | – | – | – |
| N#CCn1c(N2CC(O)(C(F)F)C2)c(-c2ccc(F)c(Cl)c2)c(=O)n(-c2cncc(C(F)F)n2)c1=O [Compound I-345] | > 7.00 | > 8.00 | – | – | – |
| Cc1cncc(-n2c(=O)c(-c3ccc(F)c(Cl)c3)c(-c3cn[nH]c3)n(CC#N)c2=O)c1 [Compound I-279] | > 7.00 | > 8.00 | – | – | – |
| N#CCn1c(N2CC(O)(C(F)(F)F)C2)c(-c2ccc(F)c(Cl)c2)c(=O)n(-c2cnc3cc(F)ccn23)c1=O [Compound I-136] | – | > 8.00 | > 7.00 | – | – |
| N#CCn1c(N2CC(C(F)(F)F)C2)c(-c2cc(F)c(F)c(C#N)c2)c(=O)n(-c2cncc(Cl)c2)c1=O [Compound I-368] | > 7.00 | > 8.00 | – | – | – |
| CC1(O)CN(c2c(-c3ccc(F)c(Cl)c3)c(=O)n(-c3cncc(OC(F)F)n3)c(=O)n2CC#N)C1 [Compound I-354] | > 7.00 | > 8.00 | – | – | – |
| N#CCn1c(N2CC3(C2)CC(F)(F)C3)c(-c2ccc(F)c(Cl)c2)c(=O)n(-c2cc(OCC(F)F)cnn2)c1=O [Compound I-217] | > 7.00 | > 8.00 | – | – | – |
| N#CCn1c(Cl)c(-c2ccc(F)c(Cl)c2)c(=O)n(-c2cnc3cc(Cl)ccn23)c1=O [Compound I-126] | – | < 7.00 | 5.30 to 6.00 | – | – |
| N#CCn1c(N2CC3(CCOC3)C2)c(-c2cc(Cl)cc(C#N)c2)c(=O)n(-c2cncc(Cl)c2)c1=O [Compound I-179] | – | > 8.00 | > 7.00 | – | – |
| N#CCn1c(N2CC3(CCOC3)C2)c(C2=CCCCC2)c(=O)n(-c2cncc(Cl)c2)c1=O [Compound I-264] | > 7.00 | > 8.00 | – | – | – |
| Cn1ccc(-c2c(-c3ccc(F)c(Cl)c3)c(=O)n(-c3cncc(Cl)c3)c(=O)n2CC#N)n1 [Compound I-302] | > 7.00 | > 8.00 | – | – | – |
| N#CCn1c(N2CC3(CCOC3)C2)c(-c2ccc(F)c(Cl)c2)c(=O)n(-c2cnc3ccc(F)cn23)c1=O [Compound I-130] | – | > 8.00 | > 7.00 | – | – |
| N#CCn1c(N2CC(O)(C(F)(F)F)C2)c(-c2ccc(F)c(Cl)c2)c(=O)n(-c2cncc(C(F)F)n2)c1=O [Compound I-383] | > 7.00 | > 8.00 | – | – | – |
| CCCNC(=O)c1c(-c2ccc(F)c(Cl)c2)c(=O)n(-c2cncc(Cl)c2)c(=O)n1CC#N [Compound I-405] | 6.00 to 7.00 | < 7.00 | – | – | – |
| N#CCn1c(N2CCC(F)(F)CC2)c(-c2cccc(C#N)c2)c(=O)n(-c2cncc(Cl)c2)c1=O [Compound I-169] | – | 7.00 to 8.00 | – | > 7.00 | – |
| Cc1cncc(-n2c(=O)c(Cc3cc(F)c(F)c(F)c3)c(N3CCC4(C3)NC(=O)NC4=O)n(CC#N)c2=O)c1 (racemic) [Compound I-095] | – | 7.00 to 8.00 | – | 5.30 to 6.00 | – |
| Cc1cncc(-n2c(=O)c(-c3ccc(F)c(Cl)c3)c(-c3ccc(N(C)C)cc3)n(CC#N)c2=O)c1 [Compound I-274] | > 7.00 | > 8.00 | – | – | – |
| N#CCn1c(N2CCC(C(F)(F)F)CC2)c(-c2ccc(F)c(Cl)c2)c(=O)n(-c2cnc3cc(F)ccn23)c1=O [Compound I-153] | – | > 8.00 | > 7.00 | – | – |
| Cc1ccc(-c2c(Cc3cc(F)c(F)c(F)c3)c(=O)n(-c3cncc(Cl)c3)c(=O)n2CC#N)cc1C [Compound I-058] | – | > 8.00 | > 7.00 | – | – |

Source: patent publication US20250092056A1, “URACIL DERIVATIVES HAVING VIRUS REPLICATION INHIBITORY ACTIVITY AND PHARMACEUTICAL COMPOSITION COMPRISING THE SAME” (Shionogi & Co., Ltd., priority 2022, published 2025)
